Measurements published in patent publication US11306081B2, “Phenylacetamides as inhibitors of rock” (BRISTOL-MYERS SQUIBB COMPANY, priority 2017, dated 2022).

target: ROCK2 (Homo sapiens (Human), UniProt O75116); experiment: ROCK assay (LABCHIP 3000 peptide phosphorylation assay); type: biochemical; settings: 5 μM ATP, 1.5 μM peptide substrate, dose-response
Method: The effectiveness of compounds of the present invention as ROCK inhibitors can be determined in a 30 μL assay containing 20 mM HEPES, pH 7.5, 20 mM MgCl2, 0.015% Brij-35, 4 mM DTT, 5 μM ATP and 1.5 μM peptide substrate (FITC-AHA-AKRRRLSSLRA-OH) (SEQ ID No. 1). Compounds were dissolved in DMSO so that the final concentration of DMSO was <2%, and the reaction was initiated with Rho kinase variants. After incubation, the reaction was terminated by the addition of EDTA and the phosphorylated and non-phosphorylated peptides separated using a LABCHIP® 3000 Reader (Caliper Life Sciences). […] Compounds were tested in dose-response format, and the inhibition of kinase activity was calculated at each concentration of compound. The inhibition data were fit using a curve-fitting program to determine the IC50; i.e., the concentration of compound required to inhibit 50% of kinase activity.

ROCK2, sequence (O75116 whole entry, species assumed): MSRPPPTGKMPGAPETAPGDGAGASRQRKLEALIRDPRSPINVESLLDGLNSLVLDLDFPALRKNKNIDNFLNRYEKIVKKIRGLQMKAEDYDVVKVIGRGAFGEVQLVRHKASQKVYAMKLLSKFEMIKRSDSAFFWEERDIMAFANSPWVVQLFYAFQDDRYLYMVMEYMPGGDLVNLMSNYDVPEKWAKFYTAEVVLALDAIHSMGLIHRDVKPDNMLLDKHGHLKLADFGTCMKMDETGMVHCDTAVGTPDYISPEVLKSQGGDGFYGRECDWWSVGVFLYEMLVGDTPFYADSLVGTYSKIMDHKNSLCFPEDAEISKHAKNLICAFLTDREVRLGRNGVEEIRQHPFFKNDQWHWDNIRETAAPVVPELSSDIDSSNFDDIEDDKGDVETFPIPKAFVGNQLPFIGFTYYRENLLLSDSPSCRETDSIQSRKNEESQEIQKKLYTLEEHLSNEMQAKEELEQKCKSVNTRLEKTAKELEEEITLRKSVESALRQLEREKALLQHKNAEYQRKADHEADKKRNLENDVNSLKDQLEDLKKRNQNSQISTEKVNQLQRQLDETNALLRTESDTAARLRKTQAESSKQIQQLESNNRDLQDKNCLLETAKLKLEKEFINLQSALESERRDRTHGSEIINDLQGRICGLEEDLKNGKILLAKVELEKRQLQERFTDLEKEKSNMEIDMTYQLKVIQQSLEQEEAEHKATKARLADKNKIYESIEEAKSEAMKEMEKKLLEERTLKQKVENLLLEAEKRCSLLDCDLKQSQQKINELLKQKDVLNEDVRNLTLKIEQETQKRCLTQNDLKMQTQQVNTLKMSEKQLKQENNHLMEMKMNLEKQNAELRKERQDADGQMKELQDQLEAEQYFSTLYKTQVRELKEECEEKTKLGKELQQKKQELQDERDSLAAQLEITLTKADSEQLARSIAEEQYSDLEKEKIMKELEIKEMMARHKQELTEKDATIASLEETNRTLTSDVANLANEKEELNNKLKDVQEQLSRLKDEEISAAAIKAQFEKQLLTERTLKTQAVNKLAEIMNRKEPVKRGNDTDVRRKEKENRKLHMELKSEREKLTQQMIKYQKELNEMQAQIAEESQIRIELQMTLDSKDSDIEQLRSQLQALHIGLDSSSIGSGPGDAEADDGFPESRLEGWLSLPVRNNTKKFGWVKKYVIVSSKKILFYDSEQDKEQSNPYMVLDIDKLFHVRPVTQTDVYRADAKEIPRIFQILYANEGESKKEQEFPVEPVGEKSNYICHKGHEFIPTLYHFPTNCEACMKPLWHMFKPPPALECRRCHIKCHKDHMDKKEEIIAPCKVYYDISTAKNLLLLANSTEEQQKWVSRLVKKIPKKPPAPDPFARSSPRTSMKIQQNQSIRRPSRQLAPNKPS

Row | SMILES | IC50 [nM]
1 | COc1ccc2c(c1)CCc1sc(NC(=O)Cc3ccc(Oc4ncccc4C(N)=O)c(F)c3)nc1-2 [Example 001, 2-(2-fluoro-4-(2-((7-methoxy-4,5-dihydronaphtho[1,2-d]thiazol-2-yl)amino)-2-oxoethyl)phenoxy)nicotinamide] | 10
2 | COc1ccc2sc(NC(=O)Cc3ccc(Oc4ncccc4C(N)=O)cc3)nc2c1 [Example 002, 2-(4-(2-((5-methoxybenzo[d]thiazol-2-yl)amino)-2-oxoethyl)phenoxy) Nicotinamide] | 35
3 | CC(C)(O)COc1ccc2sc(NC(=O)Cc3ccc(Oc4ncccc4C(N)=O)c(F)c3)nc2c1 [Example 003, 2-(2-fluoro-4-(2-((5-(2-hydroxy-2-methylpropoxy)benzo[d]thiazol-2-yl)amino)-2-oxoethyl)phenoxy)nicotinamide] | 20
4 | Cc1nn(C)cc1-c1ccc2sc(NC(=O)Cc3ccc(Oc4ncccc4C(N)=O)c(F)c3)nc2c1 [Example 004, 2-(4-(2-((5-(1,3-dimethyl-1H-pyrazol-4-yl)benzo[d]thiazol-2-yl)amino)-2-oxoethyl)-2-fluorophenoxy)nicotinamide] | 3
5 | Cc1n[nH]c(C)c1-c1ccc2sc(NC(=O)Cc3ccc(Oc4ncccc4C(N)=O)c(F)c3)nc2c1 [Example 005, 2-(4-(2-((5-(3,5-dimethyl-1H-pyrazol-4-yl)benzo[d]thiazol-2-yl)amino)-2-oxoethyl)-2-fluorophenoxy)nic-otinamide] | 10
6 | Cn1nc(C(F)(F)F)cc1-c1ccc2sc(NC(=O)Cc3ccc(Oc4ncccc4C(N)=O)c(F)c3)nc2c1 [Example 006, 2-(2-fluoro-4-(2-((5-(1-methyl-3-(trifluoromethyl)-1H-pyrazol-5-yl)benzo[d]thiazol-2-yl)amino)-2-oxoethyl)phenoxy) nicotinamide] | 18
7 | NC(=O)c1cccnc1Oc1ccc(CC(=O)Nc2nc3ccccc3n2CC2CC2)cc1Cl [Example 007, 2-(2-chloro-4-(2-((1-(cyclopropylmethyl)-1H-benzo[d]imidazol-2-yl)amino)-2-oxoethyl)phenoxy)nicotinamide] | 14
8 | COc1ccn2nc(NC(=O)Cc3ccc(Oc4ncccc4C(N)=O)c(F)c3)nc2c1 [Example 008, 2-(2-fluoro-4-(2-((7-methoxy-[1,2,4]triazolo[1,5-a]pyridin-2-yl)amino)-2-oxoethyl)phenoxy)nicotinamide] | 7
9 | NC(=O)c1cccnc1Oc1ccc(CC(=O)Nc2cn3cc(Br)ccc3n2)cc1Cl [Example 009, 2-(4-(2-((6-bromoimidazo[1,2-a]pyridin-2-yl)amino)-2-oxoethyl)-2-chlorophenoxy)nicotinamide] | 35
10 | Cn1nc(NC(=O)Cc2ccc(Oc3ncccc3C(N)=O)c(Cl)c2)c2cccnc21 [Example 010, 2-(2-chloro-4-(2-((1-methyl-1H-pyrazolo[3,4-b]pyridin-3-yl)amino)-2-oxoethyl)phenoxy)nicotinamide] | 159
11 | NC(=O)c1cccnc1Oc1ccc(CC(=O)Nc2nnc(-c3cnccn3)s2)cc1F [Example 011, 2-(2-fluoro-4-(2-oxo-2-((5-(pyrazin-2-yl)-1,3,4-thiadiazol-2yl)amino)ethyl)phe-noxy) nicotinamide] | 150
12 | Cc1nc(NC(=O)Cc2ccc(Oc3ncccc3C(N)=O)c(F)c2)sc1-c1ccccn1 [Example 012, 2-(2-fluoro-4-(2-((4-methyl-5-(pyridin-2-yl)thiazol-2-yl)amino)-2-oxoethyl)phenoxy)nic-otinamide] | 38
13 | Cc1sc(NC(=O)Cc2ccc(Oc3ncccc3C(N)=O)c(F)c2)nc1-c1cccc(F)n1 [Example 013, 2-(2-fluoro-4-(2-((4-(6-fluoropyridin-2-yl)-5-methylthiazol-2-yl)amino)-2-oxoethyl)phenoxy)nicotinamide] | 21
14 | Cc1sc(NC(=O)Cc2ccc(Oc3ncccc3C(N)=O)c(F)c2)nc1-c1ccc(F)cn1 [Example 014, 2-(2-fluoro-4-(2-((4-(5-fluoropyridin-2-yl)-5-methylthiazol-2-yl)amino)-2-oxoethyl)phenoxy)nic-otinamide] | 96
15 | NC(=O)c1cccnc1Oc1ccc(CC(=O)Nc2nc3ccccc3s2)cc1F [Example 015, 2-(4-(2-(benzo[d]thiazol-2-ylamino)-2-oxoethyl)-2-fluorophenoxy)nicotinamide] | 31
16 | Cc1sc(NC(=O)Cc2ccc(Oc3ncccc3C(N)=O)cc2)nc1-c1ccccc1 [Example 016, 2-(4-(2-((5-methyl-4-phenylthiazol-2-yl)amino)-2-oxoethyl)phenoxy) nicotinamide] | 87
17 | Cn1ccc(-c2csc(NC(=O)Cc3ccc(Oc4ncccc4C(N)=O)c(F)c3)n2)cc1=O [Example 017, 2-(2-fluoro-4-(2-((4-(1-methyl-2-oxo-1,2-dihydropyridin-4-yl)thiazol-2-yl)amino)-2-oxoethyl)phenoxy)nicotinamide] | 404
18 | NC(=O)c1cccnc1Oc1ccc(CC(=O)Nc2nc(-c3cc[nH]c(=O)c3)cs2)cc1F [Example 018, 2-(2-fluoro-4-(2-oxo-2-((4-(2-oxo-1,2-dihydropyridin-4-yl)thiazol-2-yl)amino)ethyl)phenoxy)nicotinamide] | 245
19 | COC(=O)Nc1cc(-c2nc(NC(=O)Cc3ccc(Oc4ncccc4C(N)=O)c(F)c3)sc2C)ccn1 [Example 019, methyl (4-(2-(2-(4-((3-carbamoylpyridin-2-yl)oxy)-3-fluorophenyl)acetamido)-5-methylthiazol-4-yl)pyridin-2-yl)carbamate] | 49
20 | Cc1sc(NC(=O)Cc2ccc(Oc3ncccc3C(N)=O)c(F)c2)nc1-c1ccc(=O)n(C)c1 [Example 020, 2-(2-fluoro-4-(2-((5-methyl-4-(1-methyl-6-oxo-1,6-dihydropyridin-3-yl)thiazol-2-yl)amino)-2-oxoethyl)phenoxy)nicotinamide] | 106
21 | Cc1sc(NC(=O)Cc2ccc(Oc3ncccc3C(N)=O)c(F)c2)nc1-c1ccc(=O)n(C(F)F)c1 [Example 021, 2-(4-(2-((4-(1-(difluoromethyl)-6-oxo-1,6-dihydropyridin-3-yl)-5-methylthiazol-2-yl)amino)-2-oxoethyl)-2-fluorophenoxy)nicotinamide] | 53

The next lines start with the values.

Row | IC50 [nM] | SMILES
22 | 41 | Cc1cccc(-c2nc(NC(=O)Cc3ccc(Oc4ncccc4C(N)=O)c(Cl)c3)sc2C)n1 [Example 022, 2-(2-chloro-4-(2-((5-methyl-4-(6-methylpyridin-2-yl)thiazol-2-yl)amino)-2-oxoethyl)phenoxy)nicotinamide]
23 | 4 | NC(=O)c1cccnc1Oc1ccc(CC(=O)Nc2nc(C3CCC3)c(-c3ccccn3)s2)cc1Cl [Example 023, 2-(2-chloro-4-(2-((4-cyclobutyl-5-(pyridin-2-yl)thiazol-2-yl)amino)-2-oxoethyl)phenoxy)nicotinamide]
24 | 8 | NC(=O)c1cccnc1Oc1ccc(CC(=O)Nc2nc3cc(-c4cc[nH]c(=O)c4)ccc3s2)cc1F [Example 024, 2-(2-fluoro-4-(2-oxo-2-((5-(2-oxo-1,2-dihydropyridin-4-yl)benzo[d]thiazol-2-yl)amino)ethyl)phe-noxy)nicotinamide]
25 | 23 | Cn1ccc(-c2ccc3sc(NC(=O)Cc4ccc(Oc5ncccc5C(N)=O)c(F)c4)nc3c2)cc1=O [Example 025, 2-(2-fluoro-4-(2-((5-(1-methyl-2-oxo-1,2-dihydropyridin-4-yl)benzo[d]thiazol-2-yl)amino)-2-oxoethyl)phenoxy)nico-tinamide]
26 | 8 | Cn1cc(-c2ccc3sc(NC(=O)Cc4ccc(Oc5ncccc5C(N)=O)c(F)c4)nc3c2)c(C2CC2)n1 [Example 026, 2-(4-(2-((5-(3-cyclopropyl-1-methyl-1H-pyrazol-4-yl)benzo[d]thiazol-2-yl)amino)-2-oxoethyl)-2-fluorophenoxy)nicotin-amide]
27 | 5 | Cc1nn(C)c(-c2ccc3sc(NC(=O)Cc4ccc(Oc5ncccc5C(N)=O)c(F)c4)nc3c2)c1C [Example 027, 2-(2-fluoro-4-(2-oxo-2-((5-(1,3,4-trimethyl-1H-pyrazol-5-yl)benzo[d]thiazol-2-yl)amino)ethyl)phenoxy) nicotinamide]
28 | 30 | Cc1cc(-c2ccc3sc(NC(=O)Cc4ccc(Oc5ncccc5C(N)=O)c(F)c4)nc3c2)n(C)n1 [Example 028, 2-(4-(2-((5-(1,3-dimethyl-1H-pyrazol-5-yl)benzo[d]thiazol-2-yl)amino)-2-oxoethyl)-2-fluorophenoxy)nicotin-amide]
29 | 9 | NC(=O)c1cccnc1Oc1ccc(CC(=O)Nc2nc3cc(-c4cnn(C(F)F)c4)ccc3s2)cc1F [Example 029, 2-(4-(2-((5-(1-(difluoromethyl)-1H-pyrazol-4-yl)benzo[d]thiazol-2-yl)amino)-2-oxoethyl)-2-fluorophenoxy)nicotin-amide]
30 | 8 | Cn1nccc1-c1ccc2sc(NC(=O)Cc3ccc(Oc4ncccc4C(N)=O)c(F)c3)nc2c1 [Example 030, 2-(2-fluoro-4-(2-((5-(1-methyl-1H-pyrazol-5-yl)benzo[d]thiazol-2-yl)amino)-2-oxoethyl)phenoxy)nico-tinamide]
31 | 8 | NC(=O)c1cccnc1Oc1ccc(CC(=O)Nc2nc3cc(-c4cn[nH]c4)ccc3s2)cc1F [Example 031, 2-(4-(2-((5-(1H-pyrazol-4-yl)benzo[d]thiazol-2-yl)amino)-2-oxoethyl)-2-fluorophenoxy)nicotin-amide]
32 | 89 | NC(=O)c1cccnc1Oc1ccc(CC(=O)Nc2nc3cc(-c4c[nH]nc4C(F)(F)F)ccc3s2)cc1F [Example 032, 2-(2-fluoro-4-(2-oxo-2-((5-(3-(trifluoromethyl)-1H-pyrazol-4-yl)benzo[d]thiazol-2-yl)amino)ethyl)phenoxy) nicotinamide]
